According to ChEMBL document CHEMBL1201862, “PubChem BioAssay data set” (2004):
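A five-concentration, 48-hour dose response in 96-well plates underlies each endpoint, interpolated linearly between surrounding concentrations. GI50 = concentration required for 50% inhibition of growth.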 Activity calls are given as the source filed them. No stated cut-off is given here; in the data, active = GI50 up to about 1.1 µM and inactive = higher.

Columns and labels:
Test in all cases: growth of human tumour cells (NCI), 48 h
[1] = system: 786-0
[2] = system: HOP-62
[3] = system: HT-29
[4] = system: IGROV-1
[5] = system: KM12
[6] = system: M14
[7] = system: MCF7
[8] = system: NCI-H23
[9] = system: OVCAR-3
[10] = system: OVCAR-4
[11] = system: OVCAR-8
[12] = system: RPMI-8226
[13] = system: SK-MEL-5
[14] = system: SK-OV-3
[15] = system: SNB-19
[16] = system: T47D
[17] = system: UACC-62
[18] = system: COLO 205
[19] = system: SR

| SMILES | GI50 [1] | GI50 [2] | GI50 [3] | GI50 [4] | GI50 [5] | GI50 [6] | GI50 [7] | GI50 [8] | GI50 [9] | GI50 [10] | GI50 [11] | GI50 [12] | GI50 [13] | GI50 [14] | GI50 [15] | GI50 [16] | GI50 [17] | GI50 [18] | GI50 [19] |
| --- | --- | --- | --- | --- | --- | --- | --- | --- | --- | --- | --- | --- | --- | --- | --- | --- | --- | --- | --- |
| COc1cc2c(OC)c3cc(C)oc(=O)c3c(O)c2c(O)c1-c1c(OC)cc2c(OC)c3cc(C)oc(=O)c3c(O)c2c1O | 22.2 µM (inactive) | 15.2 µM (inactive) | 22 µM (inactive) | 14 µM (inactive) | 19.1 µM (inactive) | 18.1 µM (inactive) | 25.6 µM (inactive) | 16.6 µM (inactive) | 16.6 µM (inactive) | 39.1 µM (inactive) | 13 µM (inactive) | 17.3 µM (inactive) | 16.7 µM (inactive) | 45.2 µM (inactive) | 25.2 µM (inactive) | 36.4 µM (inactive) | 20.9 µM (inactive) |  |  |
| CC(C)=CC(=O)OC1C2C(C)=CC(=O)C(O)C2(C)C2C3(O)OCC24C(CC(=O)OC14)C(C)C3O (centres undefined) | 0.01 µM (active) | 0.00942 µM (active) | 0.0104 µM (active) | 0.00849 µM (active) | 0.0139 µM (active) | 0.0023 µM (active) |  | 0.00655 µM (active) | 0.00624 µM (active) | 0.0135 µM (active) | 0.017 µM (active) | 0.00755 µM (active) | 0.00308 µM (active) | 0.213 µM (active) | 0.00349 µM (active) | 0.00288 µM (active) | 0.00925 µM (active) | 0.0975 µM (active) | 0.000774 µM (active) |
| N#Cc1ccc(Oc2nc3ccccc3nc2-c2ccccc2)cc1 | > 100 µM (inactive) | > 100 µM (inactive) | > 100 µM (inactive) | > 100 µM (inactive) | > 100 µM (inactive) |  | > 100 µM (inactive) | > 100 µM (inactive) | > 100 µM (inactive) | > 100 µM (inactive) |  | > 100 µM (inactive) | > 100 µM (inactive) | > 100 µM (inactive) | > 100 µM (inactive) |  | > 100 µM (inactive) | > 100 µM (inactive) |  |
| CC(=O)O[C@@H]1C[C@@]23C[C@@]24CC[C@H](OC2OCC(O)C(O)C2O)C(C)(C)[C@@H]4CC=C3[C@]2(C)C[C@@H]3OC4(C[C@@H](C)[C@@H]3[C@@]12C)OC(O)[C@@]1(C)O[C@@H]41 (some centres undefined) | 25.2 µM (inactive) | 27.4 µM (inactive) | 33.2 µM (inactive) | 36.5 µM (inactive) | 33.7 µM (inactive) | 47.2 µM (inactive) | 30.8 µM (inactive) | 34 µM (inactive) | 12.1 µM (inactive) | 48.4 µM (inactive) | 41.7 µM (inactive) | 19.6 µM (inactive) | 19.7 µM (inactive) | 30.4 µM (inactive) | 75.2 µM (inactive) | 20.8 µM (inactive) | 21.7 µM (inactive) | 21.3 µM (inactive) |  |
| O=C(NC(C(F)(F)F)(C(F)(F)F)P(=O)(c1ccccc1)c1ccccc1)C(C(F)(F)F)C(F)(F)F | 18.9 µM (inactive) | > 100 µM (inactive) | 14.5 µM (inactive) | 25.7 µM (inactive) | 26.2 µM (inactive) | 17.1 µM (inactive) | 26.2 µM (inactive) | 21.7 µM (inactive) | 25.8 µM (inactive) | 37.7 µM (inactive) | 29.3 µM (inactive) | 33.6 µM (inactive) | 17.8 µM (inactive) | > 100 µM (inactive) | 71.3 µM (inactive) | > 100 µM (inactive) | 56 µM (inactive) | 20.2 µM (inactive) |  |
| N#Cc1nsnc1-c1nc(-c2nsnc2C#N)nc(-c2nsnc2C#N)n1 | 61.9 µM (inactive) | > 100 µM (inactive) | > 100 µM (inactive) | > 100 µM (inactive) | 96.2 µM (inactive) |  | > 100 µM (inactive) | > 100 µM (inactive) | > 100 µM (inactive) | > 100 µM (inactive) | > 100 µM (inactive) | > 100 µM (inactive) | > 100 µM (inactive) |  | > 100 µM (inactive) |  | > 100 µM (inactive) | > 100 µM (inactive) | > 100 µM (inactive) |
| OC(C1CCCC1=N/N=C1/CCCC1C(O)(C(F)(F)Cl)C(F)(F)Cl)(C(F)(F)Cl)C(F)(F)Cl (centres undefined) | > 10 µM (inactive) | > 10 µM (inactive) | > 10 µM (inactive) | > 10 µM (inactive) | > 10 µM (inactive) | > 10 µM (inactive) | > 10 µM (inactive) | > 10 µM (inactive) | > 10 µM (inactive) | > 10 µM (inactive) | > 10 µM (inactive) | > 10 µM (inactive) | > 10 µM (inactive) | > 10 µM (inactive) | > 10 µM (inactive) | > 10 µM (inactive) | > 10 µM (inactive) | > 10 µM (inactive) |  |
| Nc1ccc(Oc2ccc(C3(c4ccc(Oc5ccc(N)c(O)c5)cc4)C4CC5C6CC7CC5C3C(C7)C6C4)cc2)cc1O | 1.73 µM (inactive) | 1.73 µM (inactive) | 1.91 µM (inactive) | 2.2 µM (inactive) | 1.86 µM (inactive) | 1.45 µM (inactive) | 1.69 µM (inactive) | 2.47 µM (inactive) | 1.52 µM (inactive) | 2.35 µM (inactive) | 1.8 µM (inactive) | 1.63 µM (inactive) | 3.86 µM (inactive) |  | 3.3 µM (inactive) |  | 4.02 µM (inactive) | 2.37 µM (inactive) | 2.25 µM (inactive) |
| CCOC(=O)c1[nH]c(COC(C)=O)c(CCCOC(C)=O)c1CCCOC(C)=O | > 100 µM (inactive) | > 100 µM (inactive) | > 100 µM (inactive) | > 100 µM (inactive) | > 100 µM (inactive) |  |  | > 100 µM (inactive) | > 100 µM (inactive) | > 100 µM (inactive) | > 100 µM (inactive) |  |  | > 100 µM (inactive) | > 100 µM (inactive) |  |  | > 100 µM (inactive) | > 100 µM (inactive) |
| COc1cc2oc(-c3ccc4c(c3)OCO4)c(OC)c(=O)c2c(O)c1OC | > 50 µM (inactive) | 15.7 µM (inactive) | > 50 µM (inactive) | > 50 µM (inactive) | > 50 µM (inactive) | > 50 µM (inactive) | > 50 µM (inactive) | 35.6 µM (inactive) | > 50 µM (inactive) | > 50 µM (inactive) | > 50 µM (inactive) |  | > 50 µM (inactive) | > 50 µM (inactive) | > 50 µM (inactive) | > 50 µM (inactive) | > 50 µM (inactive) | > 50 µM (inactive) |  |
| CC(=O)OCC1OC(Oc2cc(C)c(O)cc2C/C=C(\C)CC/C=C(\C)C[C@@H](C=C(C)C)OC(C)=O)C(O)C(OC(C)=O)C1OC(C)=O (some centres undefined) | 39.1 µM (inactive) | 28.4 µM (inactive) | 17.7 µM (inactive) | 33.6 µM (inactive) | 15.7 µM (inactive) | 23.3 µM (inactive) | 16 µM (inactive) | 23.3 µM (inactive) | 13.4 µM (inactive) | 23.6 µM (inactive) | 16.1 µM (inactive) | 9.84 µM (inactive) | 9.14 µM (inactive) | > 50 µM (inactive) | > 50 µM (inactive) | 10.1 µM (inactive) | 13.1 µM (inactive) | 9.38 µM (inactive) |  |
| N#CC(C#N)=CSc1ccccc1 | 16.7 µM (inactive) | 55 µM (inactive) | 28.6 µM (inactive) | 17.3 µM (inactive) | 19.7 µM (inactive) | 22.9 µM (inactive) |  | 57.4 µM (inactive) | 34.4 µM (inactive) | 47 µM (inactive) | 17.8 µM (inactive) | 48 µM (inactive) | 28.5 µM (inactive) | 59 µM (inactive) | 60 µM (inactive) |  | 24.2 µM (inactive) | 24.5 µM (inactive) | 7.6 µM (inactive) |
| Cc1n[nH]c(=O)n1/N=C/c1ccncc1 | > 100 µM (inactive) | > 100 µM (inactive) | > 100 µM (inactive) | > 100 µM (inactive) | > 100 µM (inactive) | > 100 µM (inactive) |  | > 100 µM (inactive) | > 100 µM (inactive) | > 100 µM (inactive) | > 100 µM (inactive) |  | > 100 µM (inactive) | > 100 µM (inactive) | > 100 µM (inactive) | > 100 µM (inactive) | > 100 µM (inactive) | > 100 µM (inactive) |  |
| Cn1c(=O)n(-c2c3ccccc3c(Cl)c3ccccc23)n(C(C)(C)C)c1=O | 48.8 µM (inactive) | 38.4 µM (inactive) | > 100 µM (inactive) | > 100 µM (inactive) | > 100 µM (inactive) | > 100 µM (inactive) | > 100 µM (inactive) | > 100 µM (inactive) | > 100 µM (inactive) |  | 49.5 µM (inactive) |  | > 100 µM (inactive) | > 100 µM (inactive) | > 100 µM (inactive) | > 100 µM (inactive) | > 100 µM (inactive) | > 100 µM (inactive) |  |
| Oc1[nH]c(NCc2ccc(Cl)cc2)nc2ncnc1-2 | > 100 µM (inactive) | > 100 µM (inactive) | > 100 µM (inactive) | > 100 µM (inactive) | > 100 µM (inactive) | > 100 µM (inactive) | 87.1 µM (inactive) | > 100 µM (inactive) | > 100 µM (inactive) | > 100 µM (inactive) | > 100 µM (inactive) | > 100 µM (inactive) | > 100 µM (inactive) | > 100 µM (inactive) | > 100 µM (inactive) | > 100 µM (inactive) | > 100 µM (inactive) | > 100 µM (inactive) |  |
| N=C1NC(=O)N2CC12 (centres undefined) [IMEXON] | > 100 µM (inactive) | > 100 µM (inactive) | > 100 µM (inactive) | > 100 µM (inactive) | > 100 µM (inactive) | > 100 µM (inactive) |  | > 100 µM (inactive) | > 100 µM (inactive) | > 100 µM (inactive) | > 100 µM (inactive) | > 100 µM (inactive) | > 100 µM (inactive) | > 100 µM (inactive) | > 100 µM (inactive) |  | > 100 µM (inactive) | > 100 µM (inactive) | 51.4 µM (inactive) |
